Two compounds from US10426790B2, “Treatment of allergic eye conditions with cyclodextrins” (Aldeyra Therapeutics, Inc., priority 2016, dated 2019) can be followed below.

“Also recorded” adds a separate entry of the source.

The test system of data set [1] is subjects with allergic conjunctivitis to grass, tree or ragweed pollen (CAPT). The experiment in a line: Phase IIa Conjunctival Allergen Provocation Test (CAPT) study, activity endpoints. It counts as in vivo, human. As to conditions: for efficacy in treating allergic conjunctivitis, result in words: clinical trial, topical ocular, four times daily about two weeks.
Source text: The primary objective of the study is to evaluate the safety and activity of NS2, i.e., compound of structural formula (I), compared to vehicle in the treatment of moderate to severe allergic conjunctivitis in subjects allergic to grass, ragweed or tree allergens following approximately 2 weeks of treatment using the Conjunctival Allergen Provocation Test (CAPT) model.
This double-blind, vehicle-controlled, randomized, parallel group study allows for testing NS2 versus vehicle in subjects with grass, tree or ragweed-induced allergic conjunctivitis in CAPT model. This study consists of 7 or 8 visits to the clinic (a medical screening visit, a titrating CAPT visit, 1 or 2 confirmatory CAPT visits, a CAPT Onset of Action Visit, and three post-2 week dosing CAPT visits) over approximately 9 weeks.
At Visit 4, site staff will update concomitant medications and collect AEs as applicable. Ophthalmic evaluations are conducted (VA, SLE, subject rating of ocular symptoms, and staff grading of conjunctival redness and lid swelling). Subjects must have ocular itching scores of 0 in each eye and conjunctival redness scores of ≤1 in each eye in each region (nasal and temporal) of each eye in order to participate. […] 30 min prior to the CAPT procedure, clinic staff instills one drop of the randomized treatment into each eye. CAPT is then performed using the concentration titration than what reached the positive response at Visit 3 or 3B. Once the CAPT allergen is instilled, subject assessed symptoms and staff assessed signs are collected at 2.5 (+1 min—itching only), 5, 10, 15 min (+2 min), 30, 60, 90, 120, 150, 180 (+5 min). At the end of the visit, subjects are instructed and dispensed their randomized treatment for 2 weeks of at-home qid dosing and their diary card for recording their dosing, AEs, and concomitant medications. Subjects are scheduled to return for Visit 5 in 2 weeks.
(§1) At Visit 5, site staff will update concomitant medications and collect AEs as applicable. Ophthalmic evaluations are conducted (VA, SLE, subject rating of ocular symptoms, and staff grading of conjunctival redness and lid swelling). Approximately 10 μL of basal tears is collected from both eyes for cytokine analysis prior to drug instillation and CAPT. 30 min prior to the CAPT procedure, clinic staff instills one drop of the randomized treatment into each eye. CAPT is then performed using the concentration titration than what reached the positive response at Visit 3 or 3B. Once the CAPT allergen is instilled, subject assessed symptoms and staff assessed signs are collected at 2.5 (+1 min—itching only), 5, 10, 15 min (+2 min), 30, 60, 90, 120, 150, 180 min (+5 min). Following CAPT instillation, tear collection is begun at the 35 min (+15 min) mark, and approximately 10 μL of basal tears is collected from both eyes.
as §1, with “Visit 6,” for “Visit 5,”, “swelling).” for “swelling). Approximately 10 μL of basal tears is collected from both eyes for cytokine analysis prior to drug instillation and CAPT.”, “min).” for “min). Following CAPT instillation, tear collection is begun at the 35 min (+15 min) mark, and approximately 10 μL of basal tears is collected from both eyes.”
At Visit 7, site staff will update concomitant medications and collect AEs as applicable. Ophthalmic evaluations are conducted (VA, SLE, subject rating of ocular symptoms, and staff grading of conjunctival redness and lid swelling). 30 min prior to the CAPT procedure, clinic staff instills one drop of the randomized treatment into each eye. CAPT is then performed using the concentration titration than what reached the positive response at Visit 3 or 3B. […]

For data set [2], the system named is subjects with allergic conjunctivitis. The data set can be described thus: Phase IIa CAPT study, safety and tolerability. The class given is in vivo, human. An excerpt: Clinical Study Endpoints—Safety Endpoints: (1) number and severity of local and systemic reactions, and other adverse reactions; (2) vital signs; (3) slit lamp examination; (4) visual acuity; (5) non-contact tonometry; and (6) fundus examination.
Study Products and Randomization. For study purposes, NS2 0.5% and NS2 0.0% are both referred to as study drug. NS2 is formulated in eye drops for topical ocular use. The drug product is supplied as single dose unpreserved eye drops at an NS2 concentration of 0.5% (w/v). The formulation is 9.5% sulfobutylether-β-cyclodextrin (SBE-β-CD) in sterile water for injection buffered with sodium phosphate, dibasic and monobasic, and pH adjusted to 7.3.
Dose Administration. NS2 ophthalmic drops (0.5%) or NS2 ophthalmic drops (0.0%) Vehicle are provided as single use blow fill vials. One drop is instilled into each eye four times daily for approximately […].
Adverse Events. An adverse event (AE) is defined as any untoward medical occurrence associated with the use of a drug in humans, whether or not considered drug related. Disease signs, symptoms, and/or laboratory abnormalities already existing prior to the use of the product are not considered AEs after treatment unless they reoccur after the subject has recovered from the pre-existing condition or, in the opinion of the investigator, they represent a clinically significant exacerbation in intensity or frequency. AEs are collected from the time the subject signs the informed consent form until the completion of study. AEs reported prior to dosing are captured and considered non treatment emergent AEs.
Safety Analysis. Safety is evaluated via the following parameters: (a) AEs; (b) Vital signs; (c) Slit lamp examination; (d) Visual acuity; (e) Non-contact tonometry; and (f) Fundus examination.
Cyclodextrin Response in CAPT Model. Cyclodextrin was utilized as vehicle in a Randomized, Parallel, Single-Center, Double-Masked, Vehicle-Controlled Phase II Study to Evaluate the Activity of Study Drug NS2 (i.e., structural formula (I)) Ophthalmic Solution in Subjects with Allergic Conjunctivitis using the Conjunctival Allergen Provocation Test (CAPT). There were initial screening and titrating CAPT visits, followed by confirmatory CAPT visits where the allergen dose which reproducibly causes an ocular allergic reaction was selected. This allergen dose was utilized for the active dosing study phase. A CAPT Onset of Action Visit after a single dose of study drug to each eye on dosing Day 1, Visit 4 (V4), and three post-2 week dosing CAPT visits on active dosing days 14, 15 and 16, V5-7. NS2 and vehicle were dosed 4× daily for 16 days. 100 healthy men and women with at least a 2 year history of allergic conjunctivitis to grass, tree or ragweed pollen were enrolled, randomized 1:1, 50 on NS2 and 50 on vehicle containing cyclodextrin.
The allergic conjunctivitis Phase IIa trial was a randomized, parallel group, double-masked, vehicle-controlled design evaluating the activity of NS2 ophthalmic solution in subjects with allergic conjunctivitis. The trial utilized the Conjunctival Allergen Provocation Test, known as the CAPT, and was conducted at a single center, Inflamax Research in Ontario, Canada, which has considerable experience with the CAPT model.

The mark [3] stands for this setting: 16 days of dosing four times per day, 50 subjects.
[4] abbreviates: CAPT, Day 1 single dose and multiple days dosing, NS2 0.5% vs vehicle (9.5% SBE-β-CD).

As for sulfobutylether-β-cyclodextrin, the “efficacy in treating allergic conjunctivitis, result in words” value in data set [1] was “high response rates and significant efficacy”.
Take `CC(C)(O)c1nc2ccc(Cl)cc2cc1N` [NS2]: in data set [2] (setting [3]), the “patients of the drug group who withdrew from the study (stinging)” value is given as 2 patients and the “patients of the drug group who withdrew from the study (stinging), percent” value worked out at 4%. Moreover, in data set [2] (NS2 group), the “stinging/burning adverse events reported as moderate” value was “less than 10%”. Besides, in data set [2] (NS2 group vs vehicle), the “frequency of stinging and or burning” value was “increased frequency”. In addition, the “tolerability, result in words” value in data set [2] (topical ocular 0.5%, 4x daily, 16 days) is reported as “generally well tolerated”. Moreover, the serious adverse events entry in data set [2] (whole study) was “no serious adverse events”. Also, the “duration of clinical efficacy following each CAPT challenge” value in data set [1] (3 hours studied after each CAPT challenge) was at least 3 h. Moreover, in data set [1] (setting [4]), the “ocular itching score, result in words” value was “statistically significant differences; also recorded: greater effect; also recorded: exceeding one point reductions” and the “ocular tearing score, result in words” value is “statistically significant differences; also recorded: greater effect; also recorded: exceeding one point reductions”. Besides, the “lid swelling, frequency and pattern, result in words” value in data set [1] (CAPT, NS2 vs vehicle) is “appeared similar”. The “efficacy in treating allergic conjunctivitis, result in words” value in data set [1] is given as “greater effect”.
